Measured values published in patent US20250230193A1, “CYCLIC COMPOUND HAVING SELECTIVE KRAS INHIBITORY EFFECT ON HRAS AND NRAS” (CHUGAI SEIYAKU KABUSHIKI KAISHA, priority 2022, published 2025).
*1 amine or outer side, *2 acyl side, *3 side chain or, on linkers, in order; H or OH if unused. Where a SMILES comes first, the peptide text is derived from it. Bridges are numbered along the chain shown (N, C = ends). [ ]: non-standard residue; d: D form. The star is where a group is joined. hPhe(3-Cl-4-CF3) = N[C@@H](CCc1ccc(C(F)(F)F)c(Cl)c1)C(=O)O; NEtPhe(4-CF3) = CCN[C@@H](Cc1ccc(C(F)(F)F)cc1)C(=O)O; NEtPhe(4-Me) = CCN[C@@H](Cc1ccc(C)cc1)C(=O)O; NMePhe(4-Me) = CN[C@@H](Cc1ccc(C)cc1)C(=O)O; X30 = CCN([C@H](C(=O)[*:2])C1CCCC1)[*:1]; NMeGly(cPent) = CN[C@H](C(=O)O)C1CCCC1; Hyp = O=C(O)[C@@H]1C[C@@H](O)CN1; NMeF = CN[C@@H](Cc1ccccc1)C(=O)O; NMeD = CN[C@@H](CC(=O)O)C(=O)O; NMeL = CN[C@@H](CC(C)C)C(=O)O; NMeV = CN[C@H](C(=O)O)C(C)C; Morpholide = C1CN(*)CCO1; NMeA = CN[C@@H](C)C(=O)O; Ac5c = NC1(C(=O)O)CCCC1; Aze = O=C(O)[C@@H]1CCN1; NEtG = CCNCC(=O)O; Sar = CNCC(=O)O

Legend:
[1] = biological target: GDP-bound HRAS wild-type protein (Homo sapiens, UniProt P01112); assay: Binding to HRAS by surface plasmon resonance (SPR), Single Cycle Kinetics; settings: KD ratio HRAS/KRAS; for HRAS/KRAS (ratio of KD value with respect to GDP-bound HRAS wild-type protein to KD value with respect to KRAS): class symbols; for HRAS/KRAS (ratio of KD for GDP-bound HRAS wild-type to KD for KRAS): SPR
GDP-bound HRAS wild-type protein, sequence (P01112 whole entry): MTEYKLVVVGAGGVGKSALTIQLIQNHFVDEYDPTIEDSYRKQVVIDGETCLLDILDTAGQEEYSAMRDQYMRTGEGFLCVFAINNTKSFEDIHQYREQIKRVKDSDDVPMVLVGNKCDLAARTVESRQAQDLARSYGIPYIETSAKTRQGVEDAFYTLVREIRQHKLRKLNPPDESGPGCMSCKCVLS

[2] = biological target: GDP-bound NRAS wild-type protein (Homo sapiens, UniProt P01111); assay: Binding to NRAS by surface plasmon resonance (SPR), Single Cycle Kinetics; settings: KD ratio NRAS/KRAS; for NRAS/KRAS (ratio of KD value with respect to GDP-bound NRAS wild-type protein to KD value with respect to KRAS): class symbols; for NRAS/KRAS (ratio of KD for GDP-bound NRAS wild-type to KD for KRAS): SPR
GDP-bound NRAS wild-type protein, sequence (P01111 whole entry): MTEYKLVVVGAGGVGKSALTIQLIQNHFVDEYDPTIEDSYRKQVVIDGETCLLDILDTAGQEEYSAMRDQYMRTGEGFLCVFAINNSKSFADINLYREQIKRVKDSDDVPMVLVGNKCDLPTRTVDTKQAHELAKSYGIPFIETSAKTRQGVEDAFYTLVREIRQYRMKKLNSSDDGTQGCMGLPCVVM

SMILES | HRAS/KRAS (ratio of KD value with respect to GDP-bound HRAS wild-type protein to KD value with respect to KRAS) [1] | NRAS/KRAS (ratio of KD value with respect to GDP-bound NRAS wild-type protein to KD value with respect to KRAS) [2] | HRAS/KRAS (ratio of KD for GDP-bound HRAS wild-type to KD for KRAS) [1] | NRAS/KRAS (ratio of KD for GDP-bound NRAS wild-type to KD for KRAS) [2]
CCOC[C@H]1C(=O)N[C@@H]([C@@H](C)CC)C(=O)N(C2CC2)CC(=O)N(C)[C@@H]2C/C=C\CCN(C2=O)[C@@H](Cc2ccc(C)cc2)C(=O)N(C)CC(=O)N[C@@H](CCc2ccc(C(F)(F)F)c(OC)c2)C(=O)N2C[C@H](OCC)C[C@@H]2C(=O)NC2(CC(C)(C)C2)C(=O)N(C)[C@H](CC2CCC2)C(=O)N(C)[C@H](C(=O)N(C)C)CC(=O)N1C (stereo in doubt) [PP2760] | B (a compound having 3 or more and less than 10 is denoted as B) | A (a compound having 10 or more and less than 20 is denoted as A) | – | –
CCC[C@H]1C(=O)N[C@H]([C@@H](C)CC)C(=O)N(C)CC(=O)N(C)[C@H]2C/C=C\CCN(C2=O)[C@@H](Cc2ccc(C)cc2)C(=O)N(C)CC(=O)N[C@@H](CCc2cc(F)c(C(F)F)c(F)c2)C(=O)N2C[C@H](OCC)C[C@H]2C(=O)NC2(CC(C)(C)C2)C(=O)N(C)[C@@H](C(CC)CC)C(=O)N(C)[C@H](C(=O)N(C)C)CC(=O)N1C (stereo in doubt) [PP2783] | A (a compound having 10 or more and less than 20 is denoted as A) | A (a compound having 10 or more and less than 20 is denoted as A) | – | –
CC[C@H](C)[C@@H]1NC(=O)[C@H](CC(C)C)N(C)C(=O)C[C@@H](C(=O)N2CCOCC2)N(C)C(=O)[C@H](C2CCCC2)N(C)C(=O)C2(CCCC2)NC(=O)[C@@H]2CCCN2C(=O)[C@H](CCc2ccc(C(F)(F)F)c(Cl)c2)NC(=O)CN(C)C(=O)[C@H](Cc2ccc(C)cc2)N(C)C(=O)[C@@H]2CCN2C(=O)[C@H](C)N(C)C1=O [PP0001] ([NMeL]I[NMeA][Aze][NMePhe(4-Me)][Sar][hPhe(3-Cl-4-CF3)]P[Ac5c][NMeGly(cPent)][NMeD]-Morpholide; lactam N-11) | – | – | C (A compound having a KD ratio of 0.1 or more and less than 3 is denoted as C) | C (A compound having a KD ratio of 0.1 or more and less than 3 is denoted as C)
CC[C@H](C)[C@@H]1NC(=O)[C@H](CC(C)C)N(C)C(=O)C[C@@H](C(=O)N2CCOCC2)N(C)C(=O)[C@H](C2CCCC2)N(C)C(=O)C2(CCCC2)NC(=O)[C@@H]2CCCN2C(=O)[C@H](CCc2ccc(C(F)(F)F)c(Cl)c2)NC(=O)CN(C)C(=O)[C@H](Cc2ccc(C(F)(F)F)cc2)N(CC)C(=O)[C@@H]2CCN2C(=O)[C@H](C)N(C)C1=O [PP0002] ([NMeL]I[NMeA][Aze][NEtPhe(4-CF3)][Sar][hPhe(3-Cl-4-CF3)]P[Ac5c][NMeGly(cPent)][NMeD]-Morpholide; lactam N-11) | – | – | C (A compound having a KD ratio of 0.1 or more and less than 3 is denoted as C) | C (A compound having a KD ratio of 0.1 or more and less than 3 is denoted as C)
CC[C@H](C)[C@@H]1NC(=O)[C@H](CC(C)C)N(C)C(=O)C[C@@H](C(=O)N2CCOCC2)N(C)C(=O)[C@H](C2CCCC2)N(C)C(=O)C2(CCCC2)NC(=O)[C@@H]2CCCN2C(=O)[C@H](CCc2ccc(C(F)(F)F)c(Cl)c2)NC(=O)CN(C)C(=O)[C@H](C2CCCC2)N(CC)C(=O)[C@@H]2CCN2C(=O)[C@H](C)N(C)C1=O [PP0003] ([NMeL]I[NMeA][Aze][X30][Sar][hPhe(3-Cl-4-CF3)]P[Ac5c][NMeGly(cPent)][NMeD]-Morpholide; lactam N-11) | – | – | C (A compound having a KD ratio of 0.1 or more and less than 3 is denoted as C) | C (A compound having a KD ratio of 0.1 or more and less than 3 is denoted as C)
CC[C@H](C)[C@@H]1NC(=O)[C@H](CC(C)C)N(C)C(=O)C[C@@H](C(=O)N2CCOCC2)N(C)C(=O)[C@H](C2CCCC2)N(C)C(=O)C2(CCCC2)NC(=O)[C@@H]2CCCN2C(=O)[C@H](CCc2ccc(C(F)(F)F)c(Cl)c2)NC(=O)CN(CC)C(=O)[C@H](Cc2ccc(C)cc2)N(C)C(=O)[C@@H]2CCN2C(=O)[C@H](C)N(C)C1=O [PP0004] ([NMeL]I[NMeA][Aze][NMePhe(4-Me)][NEtG][hPhe(3-Cl-4-CF3)]P[Ac5c][NMeGly(cPent)][NMeD]-Morpholide; lactam N-11) | – | – | C (A compound having a KD ratio of 0.1 or more and less than 3 is denoted as C) | C (A compound having a KD ratio of 0.1 or more and less than 3 is denoted as C)
CC[C@H](C)[C@@H]1NC(=O)[C@H](CC(C)C)N(C)C(=O)C[C@@H](C(=O)N2CCOCC2)N(C)C(=O)[C@H](C2CCCC2)N(C)C(=O)C2(CCCC2)NC(=O)[C@@H]2CCCN2C(=O)[C@H](CCc2ccc(C(F)(F)F)c(Cl)c2)NC(=O)CN(CC)C(=O)[C@H](Cc2ccc(C)cc2)N(CC)C(=O)[C@@H]2CCN2C(=O)[C@H](C)N(C)C1=O [PP0006] ([NMeL]I[NMeA][Aze][NEtPhe(4-Me)][NEtG][hPhe(3-Cl-4-CF3)]P[Ac5c][NMeGly(cPent)][NMeD]-Morpholide; lactam N-11) | – | – | C (A compound having a KD ratio of 0.1 or more and less than 3 is denoted as C) | C (A compound having a KD ratio of 0.1 or more and less than 3 is denoted as C)
CC[C@H](C)[C@@H]1NC(=O)[C@H](C)N(C)C(=O)C[C@@H](C(=O)N2CCOCC2)N(C)C(=O)[C@H](C2CCCC2)N(C)C(=O)C2(CCCC2)NC(=O)[C@@H]2CCCN2C(=O)[C@H](CCc2ccc(C(F)(F)F)c(Cl)c2)NC(=O)CN(C)C(=O)[C@H](Cc2ccc(C)cc2)N(CC)C(=O)[C@@H]2CCN2C(=O)[C@H](C)N(C)C1=O [PP0007] ([NMeA]I[NMeA][Aze][NEtPhe(4-Me)][Sar][hPhe(3-Cl-4-CF3)]P[Ac5c][NMeGly(cPent)][NMeD]-Morpholide; lactam N-11) | – | – | C (A compound having a KD ratio of 0.1 or more and less than 3 is denoted as C) | C (A compound having a KD ratio of 0.1 or more and less than 3 is denoted as C)
CC[C@H](C)[C@@H]1NC(=O)[C@H](CC(C)C)N(C)C(=O)C[C@@H](C(=O)N2CCOCC2)N(C)C(=O)[C@H](C2CCCC2)N(C)C(=O)C2(CCCC2)NC(=O)[C@@H]2CCCN2C(=O)[C@H](CCc2ccc(C(F)(F)F)c(Cl)c2)NC(=O)CN(C)C(=O)[C@H](Cc2ccccc2)N(C)C(=O)[C@@H]2CCN2C(=O)[C@H](C)N(C)C1=O [PP0011] ([NMeL]I[NMeA][Aze][NMeF][Sar][hPhe(3-Cl-4-CF3)]P[Ac5c][NMeGly(cPent)][NMeD]-Morpholide; lactam N-11) | – | – | C (A compound having a KD ratio of 0.1 or more and less than 3 is denoted as C) | C (A compound having a KD ratio of 0.1 or more and less than 3 is denoted as C)
CC[C@H](C)[C@@H]1NC(=O)[C@H](CC(C)C)N(C)C(=O)C[C@@H](C(=O)N2CCOCC2)N(C)C(=O)[C@H](C2CCCC2)N(C)C(=O)C2(CCCC2)NC(=O)[C@@H]2C[C@@H](O)CN2C(=O)[C@H](CCc2ccc(C(F)(F)F)c(Cl)c2)NC(=O)CN(C)C(=O)[C@H](Cc2ccc(C)cc2)N(CC)C(=O)[C@@H]2CCN2C(=O)[C@H](C)N(C)C1=O [PP0013] ([NMeL]I[NMeA][Aze][NEtPhe(4-Me)][Sar][hPhe(3-Cl-4-CF3)][Hyp][Ac5c][NMeGly(cPent)][NMeD]-Morpholide; lactam N-11) | – | – | C (A compound having a KD ratio of 0.1 or more and less than 3 is denoted as C) | C (A compound having a KD ratio of 0.1 or more and less than 3 is denoted as C)
CCO[C@@H]1C[C@H]2C(=O)NC3(CCCC3)C(=O)N(C)[C@@H](C3CCCC3)C(=O)N(C)[C@H](C(=O)N3CCOCC3)CC(=O)N(C)[C@@H](CC(C)C)C(=O)N[C@@H]([C@@H](C)CC)C(=O)N(C)[C@@H](C)C(=O)N3CC[C@H]3C(=O)N(CC)[C@@H](Cc3ccc(C)cc3)C(=O)N(C)CC(=O)N[C@@H](CCc3ccc(C(F)(F)F)c(Cl)c3)C(=O)N2C1 [PP0014] ([NMeL]I[NMeA][Aze][NEtPhe(4-Me)][Sar][hPhe(3-Cl-4-CF3)][Hyp](Et)[Ac5c][NMeGly(cPent)][NMeD]-Morpholide; lactam N-11) | – | – | C (A compound having a KD ratio of 0.1 or more and less than 3 is denoted as C) | C (A compound having a KD ratio of 0.1 or more and less than 3 is denoted as C)
CC[C@H](C)[C@@H]1NC(=O)[C@H](CC(C)C)N(C)C(=O)C[C@@H](C(=O)N2CCOCC2)N(C)C(=O)[C@H](C(C)C)N(C)C(=O)C2(CCCC2)NC(=O)[C@@H]2CCCN2C(=O)[C@H](CCc2ccc(C(F)(F)F)c(Cl)c2)NC(=O)CN(C)C(=O)[C@H](Cc2ccc(C)cc2)N(CC)C(=O)[C@@H]2CCN2C(=O)[C@H](C)N(C)C1=O [PP0015] ([NMeL]I[NMeA][Aze][NEtPhe(4-Me)][Sar][hPhe(3-Cl-4-CF3)]P[Ac5c][NMeV][NMeD]-Morpholide; lactam N-11) | – | – | C (A compound having a KD ratio of 0.1 or more and less than 3 is denoted as C) | C (A compound having a KD ratio of 0.1 or more and less than 3 is denoted as C)
CC[C@H](C)[C@@H]1NC(=O)[C@H](CC(C)C)N(C)C(=O)C[C@@H](C(=O)N2CCOCC2)N(C)C(=O)[C@H](CC(C)C)N(C)C(=O)C2(CCCC2)NC(=O)[C@@H]2CCCN2C(=O)[C@H](CCc2ccc(C(F)(F)F)c(Cl)c2)NC(=O)CN(C)C(=O)[C@H](Cc2ccc(C)cc2)N(CC)C(=O)[C@@H]2CCN2C(=O)[C@H](C)N(C)C1=O [PP0016] ([NMeL]I[NMeA][Aze][NEtPhe(4-Me)][Sar][hPhe(3-Cl-4-CF3)]P[Ac5c][NMeL][NMeD]-Morpholide; lactam N-11) | – | – | C (A compound having a KD ratio of 0.1 or more and less than 3 is denoted as C) | C (A compound having a KD ratio of 0.1 or more and less than 3 is denoted as C)
